The text below walks through data of PubChem BioAssay (NCI).

“And” between values parts separate entries of the source, which are not always exact repeats. Equal values may be shown once.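 Five concentrations, 48 hours, 96-well plates. GI50 is the concentration that inhibits growth by half. TGI: concentration producing complete growth inhibition.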

Holding throughout (assay): NCI-60 cell line screen, 48 h
Experiment [1] deals with LOX IMVI melanoma.
Experiment [2] deals with COLO 205 colon.
Experiment [3] relates to OVCAR-5 ovarian.
Experiment [4] relates to UO-31 renal.
For experiment [5], the system named is UACC-62 melanoma.
The test system of experiment [6] is HOP-62 NSCLC.
In experiment [7] the test system is OVCAR-3 ovarian.
For experiment [8], the system named is A549 NSCLC.
Experiment [9] relates to CAKI-1 renal.
Experiment [10] relates to RXF 393 renal.

With `C=C1CC[C@@H]2[C@](C)(COC(C)=O)[C@H](OC(C)=O)CC[C@@]2(C)[C@@H]1C/C=C1/C(=O)OC[C@H]1OC(C)=O`, the GI50 was 1.42 µM in [1]; 3.37 µM in experiment [2]; 1.93 µM in experiment [3]; 1.91 µM in experiment [4]; 3.37 µM in experiment [5]; 4.4 µM in experiment [6]. The GI50 is 2.17 µM in [7], 11.9 µM in [8], 6.67 µM in [9] and 1.95 µM in experiment [10]. Further, the TGI in experiment [1] is 2.85 µM; in experiment [2], 11.4 µM; in experiment [3], 3.92 µM; in [4], 3.89 µM; in experiment [5] it was 13.5 µM; in [6], 21.4 µM. The TGI in experiment [7] worked out at 4.21 µM; in experiment [8] it was 30.7 µM; in experiment [9] it was 19.6 µM; in experiment [10], 4.13 µM.
Take `CC(C)C[C@@H]1NC(=O)[C@@H]2CCCN2C(=O)[C@@H]2CCCN2C(=O)[C@H](CC(C)C)NC(=O)[C@H](CO)NC(=O)[C@H](CCCCN)NC(=O)[C@H]([C@H](C)O)NC(=O)[C@@H]2CCCC[C@@H](NC1=O)C(=O)N[C@@H](Cc1ccccc1)C(=O)N1CCC[C@H]1C(=O)N[C@@H](CC(=O)O)C(=O)NCC(=O)N[C@@H](CCCN=C(N)N)C(=O)N2`: the GI50 in experiment [1], in [2], in experiment [3], in [4], in [5] and in [6] was over 50 µM in each case. Also, the GI50 in [7], in experiment [8], in [9] and in experiment [10] was over 50 µM throughout. In addition, the TGI in [1], in experiment [2], in experiment [3], in [4], in experiment [5] and in experiment [6] was over 50 µM each time. Further, the TGI in experiment [7], in experiment [8], in experiment [9] and in [10] was over 50 µM in each case.
Turning to `COC(=O)c1cc2oc(/C=C3\SC(=S)N(NC(C)=O)C3=O)cc2n1Cc1ccccc1`, the GI50 in [1] is 0.769 µM; in [2], 5.63 µM; in experiment [3], 7.36 µM; in experiment [4], 8.88 µM; in [5], 8.91 µM; in experiment [6] it was 9.72 µM. For the same compound, the GI50 was 0.53 µM in experiment [7], 5.2 µM in experiment [8], 2.42 µM in experiment [9] and 2.81 µM in experiment [10]. Besides, the TGI was 1.6 µM in experiment [1]; 12.6 µM in [2]; 19.1 µM in [3]; over 50 µM in [4]; 16.6 µM in [5]; 20.7 µM in [6]. Further, the TGI in experiment [7] came to 2.66 µM; in experiment [8] it was 17.9 µM; in experiment [9], 7.79 µM; in experiment [10], 16.8 µM.
As to `C=C(C)[C@H](O)C(O)CC(C)[C@@H]1CCC23CC12CCC1[C@@]2(C)CCC(OC(C)=O)C(C)(C)C2CC(OC2OC(COC(C)=O)C(O)C(O)C2O)[C@]13C` (stereo not given in full), the TGI worked out at 10.7 µM in experiment [1]; 12.6 µM in experiment [2]; 13.9 µM in experiment [3]; 14.5 µM in experiment [4]; 9.4 µM in [5]; 13.2 µM in [6]. Moreover, the TGI in [7] was 11.6 µM; in experiment [8] it was 12.2 µM; in experiment [9], 12.1 µM; in experiment [10] it was 8.49 µM.
Take `O=C(CCCCCCC(=O)Nc1ccc2c(c1)/C(=C/c1ccc[nH]1)C(=O)N2)NO`: the GI50 is 0.548 µM in experiment [1]; 0.245 µM in experiment [2]; 0.755 µM in experiment [3]; 0.963 µM in experiment [4]; 0.287 µM in experiment [5]; 0.353 µM in [6]. For the same compound, the GI50 is 0.354 µM in experiment [7], 2.87 µM in experiment [8], 2.33 µM in experiment [9] and 0.487 µM in experiment [10]. For the same compound, the TGI was 2.08 µM in experiment [1]; 1.4 µM in experiment [2]; 5.75 µM in [3]; over 100 µM in experiment [4]; 1.39 µM in experiment [5]; 4.49 µM in [6]. Also, the TGI in experiment [7] is 5.51 µM; in experiment [8], 15.2 µM; in [9], over 100 µM; in [10], 3.66 µM.
For the compound `Cc1ccc(S(=O)(=O)Nc2nc3ccccc3nc2Nc2ccc3nsnc3c2)cc1`, the GI50 in [1] was 3.67 µM and 3.89 µM; in [2], 5.81 µM and 9.83 µM; in [3] it was 17.4 µM and > 81.2 µM; in experiment [4], 1.94 µM and 1.58 µM; in experiment [5], 1.81 µM and 2.02 µM; in [6], 5.36 µM and 5.68 µM. Also, the GI50 in experiment [7] was 3.23 µM and 3.65 µM; in experiment [8], 3.68 µM and 3.5 µM; in [9] it was 3.36 µM and 2.33 µM; in experiment [10], 6.92 µM and 7.73 µM. The TGI in experiment [1] was 36.1 µM and > 100 µM; in experiment [2], 23.6 µM and > 100 µM; in [3] it was over 100 µM; in [4], 19 µM and 6.49 µM; in experiment [5], 10.4 µM and > 28.2 µM; in experiment [6], 35.6 µM and > 100 µM. In addition, the TGI was 14.8 µM and > 100 µM in experiment [7]; over 100 µM in experiment [8]; over 100 µM in experiment [9]; 35.1 µM and > 100 µM in experiment [10].
Take `COC(=O)[C@@]1(O)C[C@H]2O[C@]1(C)n1c3ccccc3c3c4c(c5c6ccccc6n2c5c31)C(=O)NC4`: the GI50 was 0.197 µM in experiment [1]; 0.231 µM in experiment [2]; 0.21 µM in experiment [3]; 0.0256 µM in experiment [4]; 0.132 µM in experiment [5]; 0.169 µM in experiment [6]. In addition, the GI50 in experiment [7] was 0.587 µM; in [8], 0.24 µM; in experiment [9], 0.0149 µM; in experiment [10] it was 0.159 µM. In addition, the TGI in experiment [1] was 1.21 µM; in experiment [2] it was 0.692 µM; in experiment [3] it was 8.12 µM; in [4], 1.37 µM; in experiment [5] it was 1.55 µM; in experiment [6], 1.81 µM. Moreover, the TGI in experiment [7] was found to be 3.22 µM; in [8], 2.85 µM; in experiment [9] it was 0.217 µM; in [10] it was 1.49 µM.
